{"source": "patent US20260232681A1", "about": "“CRYSTALLINE FORMS OF N-[4-[4-(4-MORPHOLINYL)-7H-PYRROLO[2,3-D]PYRIMIDIN-6- YL]PHENYL]-4-[[3(R)-[(L-OXO-2-PROPEN-L-YL)AMINO]-L-PIPERIDINYL]METHYL]-2-PYRIDINECARBOXAMIDE AS A COVALENT INHIBITOR OF MENIN-MLL INTERACTION” (BIOMEA FUSION, INC., priority 2023, published 2026)", "key": {"[1]": {"test_system": "Zucker Diabetic Fatty (ZDF) rats", "experiment": "Glycemic control and HbA1c in ZDF rats, 28-day dosing plus 28-day washout (Examples 104, 106)", "type": "in vivo", "experimental": "Rats were treated daily with Compound 10, liraglutide, or vehicle for twnety-eight days and monitored for an additional twenty-eight days post-treatment.\nZucker Diabetic Fatty (ZDF) rats were dosed daily with Compound 10, liraglutide, or vehicle for twenty-eight days (n=10 per group) and monitored for an additional twenty-eight days post last dose. Fasting blood glucose, insulin, C-peptide levels, HbA1c, oral glucose tolerance test (OGTT), and body weight were monitored during and post-treatment.\nZDF Rat Model—five treatment groups 1. Vehicle; 2. Compound 10 at 40 mg/kg; 3. Compound 10 at 85 mg/kg; 4. Compound 10 at 170 mg/kg; and 5. Liraglutide at 0.2 mg/kg; n=10 per group. Group 2 dose (40 mg/kg) was increased to 200 mg/kg on Day 17 for rest of the dosing phase. Daily dosing zero to twenty-eight days days QD→drug wash out twenty-eight to fifty-six days. Rats were monitored for the following parameters through dosing and wash out phases—body weight, fasting blood sugar, blood insulin, C-peptide, OGTT, and HbA1C."}, "[2]": {"test_system": "human pancreatic islet beta cells", "experiment": "Beta cell proliferation in human islet microtissues (Examples 107, 110)", "type": "cell-based", "experimental": "Human islet microtissues were aggregated for 5 days and then released into ultra-low attachment plates. Half of the plates were maintained in standard culture medium (5.5 mM glucose), and half were cultured in high-glucose culture medium (GTX, 8 mM glucose) starting at Day 6, for the duration of the whole experiment. Starting on Day 9 (after 3 days of GTX pre-treatment for the relevant plates), dosing with compounds was initiated, using a Tecan D300e Digital Dispenser. DMSO was normalized by volume across all wells. Media were exchanged and compounds were redosed every 2-3 days throughout the experiment. Compound dosing was randomized; to avoid compound cross-contamination between wells, all medium exchanges were performed using 96-well deep well plates with pipette tip exchange.\nFIG. 38 provides human pancreatic islet beta cell proliferation on Day 14 and Day 21. In FIG. 38, A is ATP content; B is proliferating beta cell fraction; and C is beta cell fraction. Upper graphs are standard media, and lower graphs are high glucose media. Data represents mean+−SEM of 1 donor with n=4-10 technical replicates. One-way ANOVA with Dunnet's posthoc test to DMSO control. * p<0.05; ** p<0.01; and *** p<0.001.\nThe ability of menin-MLL inhibitors to induce beta-cell (β-cell) proliferation is tested on human islet microtissue preparations (InSphero). Briefly, human islet microtissues are produced by enzymatic dissociation of the primary islet cells followed by controlled scaffold-free hanging-drop-based self-reaggregation of the islet cells (Misun et al., 2020, Adv. Biosyst. 2020, 4, 1900291). The process helps eliminate contaminating exocrine cells, while enabling homogenous and native-like distribution of endocrine cells within each islet microtissue. […]\nEffects of the compound on beta cell function and proliferation were monitored following culturing of the islets in the presence or absence of compound for 1, 2 or 3 weeks. Proliferation of beta cells and is monitored via immunofluorescence staining for appropriate markers. […]"}, "[3]": {"test_system": "KRAS mutated cell lines (CRC, NSCLC, pancreatic)", "experiment": "KRAS mutant cell line proliferation (CellTiter-Glo, four days)", "type": "cell-based, human", "details": "for GI50: Homo sapiens", "experimental": "The inhibitory effect on cell proliferation was investigated in the human pancreas KRAS mutated cell lines MIA PaCa-2, HuP-T4, HPAF-II, human lung KRAS mutated cell line NCI-H358, and human colon KRAS mutated cell lines SW837, SW60, and NCI-H747. […] Cells were grown by adhering to culture flasks, and maintained at 70%-80% confluency.\nATP is present in all metabolically active cells and is considered as a marker for viable cells. […] The cell proliferation assay was performed using a 96-well plate format.\nEight concentrations of test compound were assessed in duplicate for each experimental run. 100% cell proliferation is represented by the untreated cells (0.2% DMSO).\n200 μL of cell suspension were added to each well of a 96-well plate.\nCell viability was measured using CellTiterGlo. […] Cell viability was measured using CellTiter Glo."}, "[4]": {"test_system": "Human ex vivo PDX tissue models harboring KRAS mutations", "experiment": "Ex vivo KRAS-mutated PDX tissue viability (CellTiter Glo, six days)", "type": "cell-based", "details": "six-day treatment, all samples", "experimental": "MOLM-13 and MiaPaCa-2 cells were incubated with Compound A for twenty-four hours and were analyzed by RNA-seq on an Illumina NextSeq 550 platform. […] Cell viability was measured using CellTiterGlo. Human ex vivo PDX tissue models harboring KRAS mutations were cultured with Compound A and clinical reversible menin inhibitors for six days. Cell viability was measured using CellTiter Glo."}, "[5]": {"test_system": "type 2 diabetes mellitus adult subjects", "experiment": "Clinical study in healthy and type 2 diabetes mellitus subjects (SAD, food effect, MAD; Example 111)", "type": "in vivo, human", "experimental": "In Experimental Phase 1 (SAD cohorts), 40 healthy adult subjects were randomized into 4 dose escalating cohorts of 10. In each cohort, subjects were randomized at 7:3 (active and placebo) in sequential order. Each cohort was composed of 2 sentinel subjects randomized at 1:1 (active and placebo), followed by 8 additional subjects randomized at 3:1 (active and placebo). Doses were 100 mg, 200 mg, 400 mg, and 600 mg.\nIn Experimental Phase 1 (3-period crossover, food effect study), each cohort of 12 healthy adult subjects was randomized at 1:1:1:1:1:1 in a 3-period crossover study with 6 treatment sequences.\nIn Experimental Phase 2 (MAD cohorts), 1 cohort of 16 healthy adult subjects was randomized at 3:1 (active and placebo), and 7 cohorts of type 2 diabetes mellitus adult subjects were randomized at 5:1 (active and placebo) to obtain safety and efficacy data to identify the potential optimal biological dose (OBD) and a recommended Phase 2 dose (RP2D). Doses were 100 mg, 200 mg, 400 mg, and 600 mg."}}, "note": "“Also recorded” adds a separate entry of the source. Read-outs that look alike come from different tables or passages of the source.", "data": [{"smiles": "C=CC(=O)N[C@@H]1CCCN(Cc2ccnc(C(=O)Nc3ccc(-c4cc5c(N6CCOCC6)ncnc5[nH]4)cc3)c2)C1", "note": "[Compound A, N-[4-[4-(4-morpholinyl)-7H-pyrrolo[2,3-d]pyrimidin-6-yl]phenyl]-4-[[3(R)-[(1-oxo-2-propen-1-yl)amino]-1-piperidinyl]methyl]-2-pyridinecarboxamide]", "values": [{"measurement": "glycemic control by oral glucose tolerance test (OGTT)", "setting": "[1]; Day 25, versus vehicle", "value": "improved glycemic control"}, {"measurement": "tolerability", "setting": "[1]; daily for 28 days", "value": "tolerated Compound 10 well"}, {"measurement": "HbA1c at all doses tested", "setting": "[1]; effects lasting fifteen days after the last dose", "value": "significant reductions"}, {"measurement": "4-hour fasting blood glucose", "setting": "[1]; high-dose arm, up to Day 29, listed as Compound 10", "value": "strong reduction; also recorded: sustained and significant reduction"}, {"measurement": "beta-cell proliferation", "setting": "[2]; glucose stress condition (8 mM glucose)", "value": "dose dependent increase"}, {"measurement": "proliferating beta cell fraction", "setting": "[2]; human islet microtissues, Day 14 and Day 21, compared to control", "value": "induced human pancreatic islet beta cells substantially"}, {"measurement": "beta-cell proliferation", "setting": "[2]; standard glucose conditions (5.5 mM glucose)", "value": "not under standard glucose conditions"}, {"measurement": "GI50", "setting": "[3]; column 1: KRAS G12C, NSCLC (8), read-out: KRAS G12C GI50", "value": "360 to 570", "unit": "nM"}, {"measurement": "GI50", "setting": "[3]; column 5: RAS WT, Pancreatic (4), read-out: RAS WT GI50", "value": "430 to 830", "unit": "nM"}, {"measurement": "GI50", "setting": "[3]; column 8: KRAS G12D, Pancreatic (1) (second set of heads), read-out: KRAS G12D GI50", "value": "370 to 570", "unit": "nM"}, {"measurement": "growth inhibition of KRAS-mutated cell lines compared to a known KRAS therapeutic", "setting": "[3]; all cancer cell types tested", "value": "significantly greater growth inhibition"}, {"measurement": "inhibition of growth", "setting": "[3]; most of fourteen CRC, NSCLC and pancreatic KRAS mutated cell lines, four-day treatment", "value": "> 90", "unit": "%"}, {"measurement": "growth of ex vivo preclinical models", "setting": "[4]", "value": "Complete abrogation of growth"}, {"measurement": "episodes of symptomatic hypoglycemia", "setting": "[5]; human patients", "value": "No episodes"}, {"measurement": "severe or serious TEAEs", "setting": "[5]; human subjects", "value": "No severe or serious TEAEs"}, {"measurement": "safety profile", "setting": "[5]; human subjects, 4 weeks of treatment", "value": "well-tolerated"}]}]}
